Assays:
Assay type in all cases: in vivo
[1] = tested on: ducksalad (Heteranthera limosa); assay: Test B flooded paddy test; conditions: Heteranthera limosa, 250 g ai/ha, Flood; 0 to 100 scale where 0 is no effect and 100 is complete control; read-out: Ducksalad plant response rating
Summary of the method: (§1)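 Greenhouse paddy pots with 2-leaf stage plants received compound by direct addition to floodwater 3 cm deep, kept at that level. Scored visually at 13–15 d versus controls (0 no effect; 100 complete control).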

[2] = tested on: barnyardgrass (Echinochloa crus-galli); assay: Test B flooded paddy test; conditions: Echinochloa crus-galli, 250 g ai/ha, Flood; 0 to 100 scale where 0 is no effect and 100 is complete control; read-out: Barnyardgrass plant response rating
Summary of the method: as §1

rice (Oryra sativa) = assay: Test B flooded paddy test; conditions: Oryza sativa, 250 g ai/ha, Flood; 0 to 100 scale where 0 is no effect and 100 is complete control; read-out: Rice plant response rating
Summary of the method: as §1

[3] = tested on: sedge, umbrella (small-flower umbrella sedge, Cyperus difformis); assay: Test B flooded paddy test; conditions: Cyperus difformis, 250 g ai/ha, Flood; 0 to 100 scale where 0 is no effect and 100 is complete control; read-out: Sedge, Umbrella plant response rating
Summary of the method: as §1

[4] = tested on: wheat (Triticum aestivum); assay: Test A postemergence; conditions: Triticum aestivum, post-emergence, 240 h, Postemergence, read-out: Wheat plant response rating (0 to 100 scale)
Summary of the method: (§2)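 Seeds sprayed preemergence with a directed soil spray, or plants at 2 to 10 cm height and one- to two-leaf stage sprayed postemergence, with test chemicals in a non-phytotoxic solvent mixture containing surfactant, in loam soil–sand blend. Injury rated visually against untreated controls after about 10 d in greenhouse, 0 (no effect) to 100 (complete control).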

[5] = tested on: ryegrass, Italian (Italian ryegrass, Lolium multiflorum); assay: Test A postemergence; conditions: Lolium multiflorum, post-emergence, 240 h, Postemergence, read-out: Ryegrass, Italian plant response rating (0 to 100 scale)
Summary of the method: as §2

[6] = tested on: giant foxtail (Setaria faberii); assay: Test A postemergence; conditions: Setaria faberi, post-emergence, 240 h, Postemergence, read-out: Foxtail, Giant plant response rating (0 to 100 scale)
Summary of the method: as §2

[7] = tested on: ragweed (common ragweed, Ambrosia elatior); assay: Test A postemergence; conditions: Ambrosia artemisiifolia, post-emergence, 240 h, Postemergence, read-out: Ragweed plant response rating (0 to 100 scale)
Summary of the method: as §2

[8] = tested on: Galium (catchweed bedstraw, Galium aparine); assay: Test A postemergence; conditions: Galium, post-emergence, 240 h, Postemergence, read-out: Galium plant response rating (0 to 100 scale)
Summary of the method: as §2

[9] = tested on: barnyardgrass (Echinochloa crus-galli); assay: Test A postemergence; conditions: Echinochloa crus-galli, post-emergence, 240 h, Postemergence
Summary of the method: as §2

Kochia (Kochia scoparia) [10] = assay: Test A postemergence; conditions: Bassia scoparia, post-emergence, 240 h, Postemergence, read-out: Kochia plant response rating (0 to 100 scale)
Summary of the method: as §2

corn (Zea mays) = assay: Test A postemergence; conditions: Zea mays, post-emergence, 240 h, Postemergence, read-out: Corn plant response rating (0 to 100 scale)
Summary of the method: as §2

[11] = tested on: pigweed (Amaranthus retroflexus); assay: Test A postemergence; conditions: Amaranthus retroflexus, post-emergence, 240 h, Postemergence, read-out: Pigweed plant response rating (0 to 100 scale)
Summary of the method: as §2

[12] = tested on: blackgrass (Alopecurus myosuroides); assay: Test A postemergence; conditions: Alopecurus myosuroides, post-emergence, 240 h, Postemergence, read-out: Blackgrass plant response rating (0 to 100 scale)
Summary of the method: as §2

[13] = tested on: ryegrass, Italian (Italian ryegrass, Lolium multiflorum); assay: Test A preemergence; conditions: Lolium multiflorum, pre-emergence, 240 h, 0 to 100 scale where 0 is no effect and 100 is complete control, read-out: Ryegrass, Italian plant response rating
Summary of the method: as §2

[14] = tested on: giant foxtail (Setaria faberii); assay: Test A preemergence; conditions: Setaria faberi, pre-emergence, 240 h, 0 to 100 scale where 0 is no effect and 100 is complete control, read-out: Foxtail, Giant plant response rating
Summary of the method: as §2

[15] = tested on: ragweed (common ragweed, Ambrosia elatior); assay: Test A preemergence; conditions: Ambrosia artemisiifolia, pre-emergence, 240 h, 0 to 100 scale where 0 is no effect and 100 is complete control, read-out: Ragweed plant response rating
Summary of the method: as §2

[16] = tested on: barnyardgrass (Echinochloa crus-galli); assay: Test A preemergence; conditions: Echinochloa crus-galli, pre-emergence, 240 h, 0 to 100 scale where 0 is no effect and 100 is complete control, read-out: Barnyardgrass plant response rating
Summary of the method: as §2

Kochia (Kochia scoparia) [17] = assay: Test A preemergence; conditions: Bassia scoparia, pre-emergence, 240 h, 0 to 100 scale where 0 is no effect and 100 is complete control, read-out: Kochia plant response rating
Summary of the method: as §2

[18] = tested on: pigweed (Amaranthus retroflexus); assay: Test A preemergence; conditions: Amaranthus retroflexus, pre-emergence, 240 h, 0 to 100 scale where 0 is no effect and 100 is complete control, read-out: Pigweed plant response rating
[19] = 125 g ai/ha, visual rating about 10 d after treatment
[20] = 31 g ai/ha, 0 is no effect, 100 is complete control
[21] = 125 g ai/ha, preemergence, visual injury rating, approximately 10 d

CN1C[C@H](c2ccc(C(F)(F)F)cc2)[C@@H](C(=O)Nc2ccccc2-n2cccn2)C1=O [Compound 1283]
0%: pest or weed control at 250 g/ha [1] | pest or weed control at 250 g/ha [2] | pest or weed control at 250 g/ha (rice (Oryra sativa)) | pest or weed control at 250 g/ha [3] | plant injury at 125 g/ha [4, 19] | plant injury at 31 g/ha [4, 20] | pest or weed control at 125 g/ha [5, 19] | pest or weed control at 31 g/ha [5, 20] | pest or weed control at 125 g/ha [6, 19] | pest or weed control at 31 g/ha [6, 20] | pest or weed control at 125 g/ha [7, 19] | pest or weed control at 31 g/ha [7, 20] | pest or weed control at 125 g/ha [8, 19] | pest or weed control at 31 g/ha [8, 20] | pest or weed control at 125 g/ha ([9]; 125 g ai/ha, visual rating about 10 d after treatment, read-out: Barnyardgrass plant response rating (0 to 100 scale, 0 no effect, 100 complete control)) | pest or weed control at 31 g/ha ([9]; 31 g ai/ha, 0 is no effect, 100 is complete control, read-out: Barnyardgrass plant response rating (0 to 100 scale)) | pest or weed control at 125 g/ha (Kochia (Kochia scoparia) [10]; [19]) | pest or weed control at 31 g/ha (Kochia (Kochia scoparia) [10]; [20]) | plant injury at 125 g/ha (corn (Zea mays); [19]) | plant injury at 31 g/ha (corn (Zea mays); [20]) | pest or weed control at 125 g/ha [11, 19] | pest or weed control at 31 g/ha [11, 20] | pest or weed control at 125 g/ha [12, 19] | pest or weed control at 31 g/ha [12, 20] | pest or weed control at 31 g/ha ([13]; 31 g ai/ha, Preemergence) | pest or weed control at 125 g/ha [13, 21] | pest or weed control at 31 g/ha ([14]; 31 g ai/ha, Preemergence) | pest or weed control at 125 g/ha [14, 21] | pest or weed control at 31 g/ha ([15]; 31 g ai/ha, Preemergence) | pest or weed control at 125 g/ha [15, 21] | pest or weed control at 31 g/ha ([16]; 31 g ai/ha, Preemergence) | pest or weed control at 125 g/ha [16, 21] | pest or weed control at 31 g/ha (Kochia (Kochia scoparia) [17]; 31 g ai/ha, Preemergence) | pest or weed control at 125 g/ha (Kochia (Kochia scoparia) [17]; [21]) | pest or weed control at 31 g/ha ([18]; 31 g ai/ha, Preemergence) | pest or weed control at 125 g/ha [18, 21]

Source: patent publication US12077503B2, “Substituted cyclic amides and their use as herbicides” (FMC CORPORATION, priority 2015, dated 2024)
